Data published in the CheMixHub viscosity set.

Assay: xn = mol fraction of the nth substance listed

COC(=O)OC + CCCO
101.3 kPa
Conditions | viscosity [mPa·s]
293.15 K, x1 = 0.0508 | 1.875
293.15 K, x1 = 0.0875 | 1.683
293.15 K, x1 = 0.1647 | 1.362
293.15 K, x1 = 0.2944 | 1.024
293.15 K, x1 = 0.3858 | 0.885
293.15 K, x1 = 0.544 | 0.751
293.15 K, x1 = 0.6026 | 0.716
293.15 K, x1 = 0.7041 | 0.666
293.15 K, x1 = 0.89 | 0.61
293.15 K, x1 = 0.9015 | 0.606
293.15 K, x1 = 0.951 | 0.608
298.15 K, x1 = 0.0517 | 1.675
298.15 K, x1 = 0.0898 | 1.493
298.15 K, x1 = 0.1903 | 1.147
298.15 K, x1 = 0.2896 | 0.936
298.15 K, x1 = 0.3944 | 0.803
298.15 K, x1 = 0.498 | 0.725
298.15 K, x1 = 0.5993 | 0.673
298.15 K, x1 = 0.7016 | 0.631
298.15 K, x1 = 0.8007 | 0.598
298.15 K, x1 = 0.8994 | 0.579
298.15 K, x1 = 0.949 | 0.576
303.15 K, x1 = 0.0728 | 1.404
303.15 K, x1 = 0.0829 | 1.367
303.15 K, x1 = 0.184 | 1.072
303.15 K, x1 = 0.2605 | 0.919
303.15 K, x1 = 0.3758 | 0.769
303.15 K, x1 = 0.4849 | 0.685
303.15 K, x1 = 0.6278 | 0.613
303.15 K, x1 = 0.7071 | 0.594
303.15 K, x1 = 0.8061 | 0.569
303.15 K, x1 = 0.9018 | 0.554
303.15 K, x1 = 0.9507 | 0.542
313.15 K, x1 = 0.0498 | 1.198
313.15 K, x1 = 0.0973 | 1.066
313.15 K, x1 = 0.1985 | 0.86
313.15 K, x1 = 0.3015 | 0.721
313.15 K, x1 = 0.4025 | 0.639
313.15 K, x1 = 0.5021 | 0.584
313.15 K, x1 = 0.6029 | 0.546
313.15 K, x1 = 0.7038 | 0.521
313.15 K, x1 = 0.8033 | 0.5
313.15 K, x1 = 0.9073 | 0.489
313.15 K, x1 = 0.951 | 0.489

CC[P+](c1ccccc1)(c1ccccc1)c1ccccc1.[Br-] + CN(CCO)CCO
viscosity [mPa·s], 100 kPa
Conditions | 293.15 K | 303.15 K | 313.15 K | 323.15 K
x1 = 0.05673 | 152.7 | 81.77 | 47.16 | 29.08
x1 = 0.08776 | 192.3 | 100.3 | 56.67 | 34.34
x1 = 0.1208 | 238 | 121 | 66.81 | 39.76

COCCOCCOC + CCCCCCO
101 kPa
Conditions | viscosity [mPa·s]
293.15 K, x1 = 0.04448 | 4.368
293.15 K, x1 = 0.105 | 3.527
293.15 K, x1 = 0.1942 | 2.714
293.15 K, x1 = 0.3018 | 2.148
293.15 K, x1 = 0.4004 | 1.796
293.15 K, x1 = 0.4511 | 1.674
293.15 K, x1 = 0.6059 | 1.383
293.15 K, x1 = 0.6997 | 1.285
293.15 K, x1 = 0.7893 | 1.204
293.15 K, x1 = 0.9139 | 1.128
293.15 K, x1 = 0.9331 | 1.117
303.15 K, x1 = 0.04385 | 3.29
303.15 K, x1 = 0.09867 | 2.69
303.15 K, x1 = 0.1894 | 2.153
303.15 K, x1 = 0.2974 | 1.72
303.15 K, x1 = 0.4047 | 1.435
303.15 K, x1 = 0.4914 | 1.28
303.15 K, x1 = 0.6035 | 1.141
303.15 K, x1 = 0.7106 | 1.046
303.15 K, x1 = 0.7884 | 0.996
303.15 K, x1 = 0.9193 | 0.945
303.15 K, x1 = 0.942 | 0.937
313.15 K, x1 = 0.04597 | 2.536
313.15 K, x1 = 0.09846 | 2.162
313.15 K, x1 = 0.1996 | 1.706
313.15 K, x1 = 0.2989 | 1.412
313.15 K, x1 = 0.4011 | 1.226
313.15 K, x1 = 0.4983 | 1.089
313.15 K, x1 = 0.5998 | 0.991
313.15 K, x1 = 0.7041 | 0.916
313.15 K, x1 = 0.7993 | 0.866
313.15 K, x1 = 0.9072 | 0.825
313.15 K, x1 = 0.942 | 0.815
